Data reported in ChEMBL document CHEMBL1141209, “Carbonic anhydrase inhibitors: inhibition of the human isozymes I, II, VA, and IX with a library of substituted difluoromethanesulfonamides” (Bioorg Med Chem Lett, 2005).
Blank lines part the entries; values can stand above or below the compound they belong to.

What was measured:
Carbonic anhydrase 9 = Carbonic anhydrase 9 (Homo sapiens, UniProt Q16790)
Description: Inhibition of cloned human transmembrane, tumor-associated isozyme CA IX

Carbonic anhydrase 1 = Carbonic anhydrase 1 (Homo sapiens, UniProt P00915)
Description: Inhibition of recombinant human cytosolic isozyme CA I

Carbonic anhydrase 2 = Carbonic anhydrase 2 (Homo sapiens, UniProt P00918)
Description: Inhibition of recombinant human cytosolic isozyme CA II

[1] = molecular target: Carbonic anhydrase 5A, mitochondrial (Homo sapiens, UniProt P35218)
Carbonic anhydrase 5A, mitochondrial, sequence (P35218 whole entry): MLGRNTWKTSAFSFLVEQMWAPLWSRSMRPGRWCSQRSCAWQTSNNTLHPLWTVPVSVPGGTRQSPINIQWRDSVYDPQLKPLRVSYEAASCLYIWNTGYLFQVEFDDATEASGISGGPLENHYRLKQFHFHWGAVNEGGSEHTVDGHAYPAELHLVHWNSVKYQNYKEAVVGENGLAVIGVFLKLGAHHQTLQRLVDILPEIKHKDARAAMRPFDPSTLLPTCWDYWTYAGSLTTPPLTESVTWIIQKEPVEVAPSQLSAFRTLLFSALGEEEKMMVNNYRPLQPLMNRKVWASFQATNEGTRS
Description: Inhibition of recombinant human mitochondrial isozyme CA VA

Carbonic anhydrase 1, sequence (P00915 whole entry): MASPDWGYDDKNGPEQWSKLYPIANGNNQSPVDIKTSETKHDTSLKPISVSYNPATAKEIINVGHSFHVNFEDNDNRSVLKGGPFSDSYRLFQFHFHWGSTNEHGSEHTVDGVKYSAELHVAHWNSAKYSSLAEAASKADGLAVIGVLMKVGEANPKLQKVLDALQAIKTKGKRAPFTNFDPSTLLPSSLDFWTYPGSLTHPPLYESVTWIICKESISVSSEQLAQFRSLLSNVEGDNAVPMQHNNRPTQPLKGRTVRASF

Compound: NS(=O)(=O)Cc1ccccc1 [PHENYLMETHANESULFONAMIDE]
Ki (Carbonic anhydrase 9): 9300 nM

Compound: NS(=O)(=O)C(F)(F)c1cccc(Br)c1
Ki (Carbonic anhydrase 9): 1490 nM

Compound: Cc1cc(=O)oc2cc(OS(N)(=O)=O)ccc12
Ki (Carbonic anhydrase 2): 25 nM

Compound: NS(=O)(=O)C(F)(F)c1ccc([N+](=O)[O-])cc1
Ki (Carbonic anhydrase 9): 2420 nM

Compound: Cc1cc(=O)oc2cc(C(F)(F)S(N)(=O)=O)ccc12
Ki (Carbonic anhydrase 9): 195 nM

Compound: NS(=O)(=O)C(F)(F)c1ccc(Br)cc1
Ki (Carbonic anhydrase 9): 7730 nM

Compound: NS(=O)(=O)C(F)(F)c1ccccc1 [PHENYLDIFLUOROMETHANESULFONAMIDE]
Ki (Carbonic anhydrase 9): 8500 nM

Results, then the compound that gave them:

Ki (Carbonic anhydrase 9): 9280 nM
Compound: NS(=O)(=O)C(F)(F)c1ccccc1Br

Ki (Carbonic anhydrase 9): 208 nM
Ki (Carbonic anhydrase 1): 116 nM
Ki (Carbonic anhydrase 2): 80 nM
Ki [1]: 1460 nM
Compound: C[C@]12CC[C@@H]3c4ccc(CS(N)(=O)=O)cc4CC[C@H]3[C@@H]1CCC2=O

Ki (Carbonic anhydrase 9): 240 nM
Compound: Cc1cc(=O)oc2cc(CS(N)(=O)=O)ccc12

Ki (Carbonic anhydrase 9): 1730 nM
Ki (Carbonic anhydrase 1): 96 nM
Ki (Carbonic anhydrase 2): 670 nM
Ki [1]: 129 nM
Compound: C[C@]12CC[C@@H]3c4ccc(C(F)(F)S(N)(=O)=O)cc4CC[C@H]3[C@@H]1CCC2=O

Ki (Carbonic anhydrase 9): 250 nM
Compound: Cc1ccc(C(F)(F)S(N)(=O)=O)cc1
